Reference: patent US20230278958A1 (Merck Patent GmbH, priority 2020, published 2023)

How the values were obtained:
YAP-TEAD interaction = experiment: SK-HEP-1 reporter assay (8x TEAD responsive elements driving NanoLuc luciferase); format: cell-based; details: Homo sapiens, SK-HEP1; SK-HEP-1 TEAD-NanoLuc reporter cells, 24 hour incubation, luciferase readout
Description: To identify inhibitors of YAP-TEAD interaction, 8× TEAD responsive elements driving the NanoLuc® luciferase gene were stably integrated into SK-HEP-1 cells (ECACC #: 91091816).
For the assay, cells were treated in duplicates with the test compounds in a 10-point dose, with the top concentration starting at 30 μM (final concentration in assay). After a 24 hour incubation at 37° C., 95% rH, and 5% CO2, a luciferase substrate/lysis reagent mix (NanoGlo™, Promega) was added to the cells, allowing the quantification of cellular luciferase activity.
Cell Media: The cells were cultured in the following media: MEM, +10% FBS, +1× GlutaMAX, +1 mM Sodium-Pyruvate, +100 μM Non-essential amino acids, +0.1 mg/ml Hygromycin. The media used for the assay was: MEM (w/o Phenol Red), +10% FBS, +1× GlutaMAX, +1 mM Sodium-Pyruvate, +100 μM Non-essential amino acids, +0.5% Pen/Strep
(§1) Reagents: The reagents used are listed below:
(§2) Cell culture: The cells were examined using an inverted microscope to check for health and cell density. To dissociate adherent cells, the monolayer of cells was washed once with pre-warmed PBS. After removing the PBS, 3 ml pre-warmed Accutase® was added to a F75 flask, dispersed evenly and the flask was allowed to sit in incubator for ˜4-5 minutes.
(§3) When a single cell suspension was obtained, 7 ml of prewarmed growth media was added and resuspended with the cells. The cell suspension was transferred to a sterile 15 ml conical centrifuge tube, and spun for 5 min at 300×g, RT. The supernatant was discarded and the pellet was resuspended in 10 ml of pre-warmed growth media.
(§4) The total cell count was determined, and 20 μl of the desired cell number was added to each well of a 384 well plate using a Multidrop Combi. The plates were then incubated for 24 hours at 37° C., 95% rH, and 5% CO2.
(§5) Compound treatment: 24 hours after seeding, the cells were treated with compounds.
(§6) A 1:333 dilution of compounds, diluted in DMSO, was made to get a final concentration of 0.3% DMSO per well. To transfer the compounds to the assay plate, 120 nl was shot from Labcyte low dead volume plates to the cell plates containing 20 μl media/well with the ECHO 555 liquid handling system.
(§7) After treatment, the cells were fed with 20 μl fresh pre-warmed assay media using a Multidrop combi.
The assay plates were then incubated for another 24 h at 37° C., 95% rH, and 5% CO2.
Luciferase readout: 24 h after treatment, the plates were taken out of the incubator and were allowed to equilibrate to RT. 30 μl of NanoGlo® reagent was added to the plates in the dark. Plates were shaken for 20 min on a Teleshake (˜1500 rpm) in the dark. The luminescence was then measured using an EnVision microplate reader. The IC50 values were generated using Genedata Screener®.
Experimental data in SK-HEP-1 reporter assay of the compounds shown in Table 1 are shown in Table 2 below and classified in the following groups: […]

NCI-H226 cells = experiment: Viability assay in NCI-H226 (Yap-dependent) cells, CyQUANT; format: cell-based; details: Homo sapiens, 96 hour incubation
Description: The ability of YAP-TEAD inhibitors to inhibit tumor cell growth was evaluated using two different cell lines: NCI-H226, which is a YAP dependent cell line, and SW620 cells, where YAP and TAZ were knocked out using CRISPR to generate a YAP independent cell line.
For the assay, cells were treated in duplicates with the test compounds in a 10-point dose, 1:3 dilution steps, with the top concentration starting at 30 μM (final concentration in assay). After a 96 hour incubation at 37° C., 95% rH, and 5% CO2, a cell-permeant DNA-binding dye that stains only healthy cells (CyQUANT®, Promega) was added to the cells, allowing the quantification of cell viability.
Cell Media: The NCI-H226 cells were cultured in the following media: RPMI 1640, +10% FBS, +1× GlutaMAX, +10 mM HEPES, +0.5% Pen/Strep. The SW620-KO cells were cultured in the following media: DMEM/F-12, +10% FBS, +1× GlutaMAX, +10 mM HEPES, +0.5% Pen/Strep.
as §1
as §2, with “health,” for “health and”, “density, etc.” for “density.”, “Accutase” for “Accutase®”
as §3, §4, §5, §6, §7
The assay plates were then incubated for 96 h at 37° C., 95% rH, and 5% CO2.
96h after treatment 30 μl of CyQuant® reagent was added to the assay plates using a Multidrop combi in the dark. The plates were then incubated for 1 hour at 37° C., 95% rH and 5% CO2. Thereafter, the assay plates were removed from the incubator and allowed to equilibrate to RT for 30 min in the dark without lid. Finally, they were measured using an EnVision microplate reader with a FITC bottom read program.
Experimental data in the Viability assay of the compounds shown in Table 1 are shown in Table 3 below and classified in the following groups: […]

IC50 (YAP-TEAD interaction) [nM]	IC50 (NCI-H226 cells) [µM]	SMILES
10 to 100		Cc1ccc2c(c1)c1cc(C(=O)NC[C@@H](O)CO)ccc1n2-c1ccc(C(F)(F)F)cc1 (single isomer, unassigned) [Compound 68, N-[(2R or 2S)-2,3-dihydroxypropyl]-6-methyl-9-[4-(trifluoromethyl)phenyl]-9H-carbazole-3-carboxamide]
100 to 1000		Cc1ccc2c(c1)c1cc(C(=O)NC[C@H](O)CO)ccc1n2-c1ccc(C(F)(F)F)cc1 (single isomer, unassigned) [Compound 69, N-[(2S or 2R)-2,3-dihydroxypropyl]-6-methyl-9-[4-(trifluoromethyl)phenyl]-9H-carbazole-3-carboxamide]
10 to 100		Cc1cc2c3cc(C(=O)NC4CC4)ccc3n(-c3ccc(C(F)(F)F)cc3)c2cc1C [Compound 70, N-cyclopropyl-6,7-dimethyl-9-[4-(trifluoromethyl)phenyl]-9H-carbazole-3-carboxamide]
100 to 1000		Cc1ccc2c(c1)c1cc(C(=O)N[C@H](C)CO)ccc1n2-c1ccc(C(F)(F)F)cc1 [Compound 71, N-[(2R)-1-hydroxypropan-2-yl]-6-methyl-9-[4-(trifluoromethyl)phenyl]-9H-carbazole-3-carboxamide]
100 to 1000		Cc1ccc2c(c1)c1cc(C(=O)N[C@@H](C)CO)ccc1n2-c1ccc(C(F)(F)F)cc1 [Compound 72, N-[(2S)-1-hydroxypropan-2-yl]-6-methyl-9-[4-(trifluoromethyl)phenyl]-9H-carbazole-3-carboxamide]
> 1000		Cc1ccc2c(c1)c1cc(C(=O)NCc3ccncn3)ccc1n2-c1ccc(OC(F)(F)F)cc1 [Compound 73, 6-methyl-N-[(pyrimidin-4-yl)methyl]-9-[4-(trifluoromethoxy)phenyl]-9H-carbazole-3-carboxamide]
1 to 10		CNC(=O)c1ccc2c(c1)c1cc(C)c(C)cc1n2-c1ccc(C(F)(F)F)cc1 [Compound 74, N,6,7-trimethyl-9-[4-(trifluoromethyl)phenyl]-9H-carbazole-3-carboxamide]
10 to 100		Cc1cc2c3cc(C(=O)NCCO)ccc3n(-c3ccc(C(F)(F)F)cc3)c2cc1C [Compound 75, N-(2-hydroxyethyl)-6,7-dimethyl-9-[4-(trifluoromethyl)phenyl]-9H-carbazole-3-carboxamide]
10 to 100		Cc1cc2c3cc(C(N)=O)ccc3n(-c3ccc(C(F)(F)F)cc3)c2cc1C [Compound 76, 6,7-dimethyl-9-[4-(trifluoromethyl)phenyl]-9H-carbazole-3-carboxamide]

Second part, the compound before the results:

SMILES	IC50 (YAP-TEAD interaction) [nM]	IC50 (NCI-H226 cells) [µM]
O=C(O)c1ccc2c(c1)c1cc(Cc3cccc(F)c3)ccc1n2-c1ccc(C(F)(F)F)cc1 [Compound 2, 6-[(3-fluorophenyl)methyl]-9-[4-(trifluoromethyl)phenyl]-9H-carbazole-3-carboxylic acid]	100 to 1000	0.1 to 1
O=C(O)c1ccc2c(c1)c1cc(Cc3ccccc3F)ccc1n2-c1ccc(C(F)(F)F)cc1 [Compound 3, 6-[(2-fluorophenyl)methyl]-9-[4-(trifluoromethyl)phenyl]-9H-carbazole-3-carboxylic acid]	100 to 1000	1 to 10
O=C(O)c1ccc2c(c1)c1cc(Cc3ccc(F)cc3)ccc1n2-c1ccc(C(F)(F)F)cc1 [Compound 4, 6-[(4-fluorophenyl)methyl]-9-[4-(trifluoromethyl)phenyl]-9H-carbazole-3-carboxylic acid]	100 to 1000	> 10
O=C(O)c1ccc2c(c1)c1ccncc1n2-c1ccc(C(F)(F)F)cc1 [Compound 5, 9-[4-(trifluoromethyl)phenyl]-9H-pyrido[3,4-b]indole-6-carboxylic acid]	100 to 1000	0.1 to 1
O=C(O)c1ccc2c(c1)c1cnccc1n2-c1ccc(C(F)(F)F)cc1 [Compound 7, 5-[4-(trifluoromethyl)phenyl]-5H-pyrido[4,3-b]indole-8-carboxylic acid]	> 1000	> 10
N#Cc1ccc2c(c1)c1cc(C(=O)O)ccc1n2-c1ccc(C(F)(F)F)cc1 [Compound 12, 6-cyano-9-[4-(trifluoromethyl)phenyl]-9H-carbazole-3-carboxylic acid]	10 to 100	1 to 10
O=C(O)c1ccc2c(c1)c1cc(OC(F)(F)F)ccc1n2-c1ccc(C(F)(F)F)cc1 [Compound 15, 6-(trifluoromethoxy)-9-[4-(trifluoromethyl)phenyl]-9H-carbazole-3-carboxylic acid]	10 to 100	0.001 to 0.1
O=C(O)c1cc2c3ccccc3n(Cc3ccc(C(F)(F)F)cc3)c2cn1 [Compound 32, 9-{[4-(trifluoromethyl)phenyl]methyl}-9H-pyrido[3,4-b]indole-3-carboxylic acid]	> 1000	
O=C(NC1CC1)c1cc2c3cccnc3n(-c3ccc(C(F)(F)F)cc3)c2cn1 [Compound 36, N-cyclopropyl-8-[4-(trifluoromethyl)phenyl]-5,8,10-triazatricyclo[7.4.0.0^2,^7]trideca-1(9),2(7),3,5,10,12-hexaene-4-carboxamide]	100 to 1000	0.1 to 1
Cc1ccc2c(c1)c1cc(C(=O)NC3CC3)ccc1n2-c1ccc(C(F)(F)F)cc1 [Compound 37, N-cyclopropyl-6-methyl-9-[4-(trifluoromethyl)phenyl]-9H-carbazole-3-carboxamide]	10 to 100	0.001 to 0.1
Cc1ccc2c(c1)c1cc(C(=O)NCCO)ccc1n2-c1ccc(C(F)(F)F)cc1 [Compound 38, N-(2-hydroxyethyl)-6-methyl-9-[4-(trifluoromethyl)phenyl]-9H-carbazole-3-carboxamide]	10 to 100	0.001 to 0.1
Cc1ccc2c(c1)c1cc(C(=O)NCC(O)C(F)(F)F)ccc1n2-c1ccc(C(F)(F)F)cc1 (centres unmarked) [Compound 60, 6-methyl-N-(3,3,3-trifluoro-2-hydroxypropyl)-9-[4-(trifluoromethyl)phenyl]-9H-carbazole-3-carboxamide]	100 to 1000	
Cc1ccc2c(c1)c1cc(C(=O)NCc3ccccn3)ccc1n2-c1ccc(OC(F)(F)F)cc1 [Compound 64, 6-methyl-N-[(pyridin-2-yl)methyl]-9-[4-(trifluoromethoxy)phenyl]-9H-carbazole-3-carboxamide]	> 1000	
Cc1ccc2c(c1)c1cc(C(=O)NCc3ncccn3)ccc1n2-c1ccc(OC(F)(F)F)cc1 [Compound 65, 6-methyl-N-[(pyrimidin-2-yl)methyl]-9-[4-(trifluoromethoxy)phenyl]-9H-carbazole-3-carboxamide]	> 1000	
Cc1ccc2c(c1)c1cc(C(=O)NCc3cnccn3)ccc1n2-c1ccc(OC(F)(F)F)cc1 [Compound 66, 6-methyl-N-[(pyrazin-2-yl)methyl]-9-[4-(trifluoromethoxy)phenyl]-9H-carbazole-3-carboxamide]	> 1000	
Cc1ccc2c(n1)c1cc(C(N)=O)ccc1n2-c1ccc(C(F)(F)F)cc1 [Compound 67, 2-methyl-5-[4-(trifluoromethyl)phenyl]-5H-pyrido[3,2-b]indole-8-carboxamide]	10 to 100	
